Paper PMC10342707, “Identification of Regulatory Molecular “Hot Spots” for LH/PLOD Collagen Glycosyltransferase Activity” (International Journal of Molecular Sciences, 2023)

Key:
LH3/PLOD3 [1] = molecular target: T1, LH3/PLOD3 (Homo sapiens, UniProt O60568); assay: differential scanning fluorimetry; format: binding; details: 50 mM MnCl2, 5 mM ligand, 25 mM HEPES, 500 mM NaCl, pH 8
T1 construct: 6xHis-tag and TEV site; secreted from HEK293-F cells
T1 sequence (O60568 25-738): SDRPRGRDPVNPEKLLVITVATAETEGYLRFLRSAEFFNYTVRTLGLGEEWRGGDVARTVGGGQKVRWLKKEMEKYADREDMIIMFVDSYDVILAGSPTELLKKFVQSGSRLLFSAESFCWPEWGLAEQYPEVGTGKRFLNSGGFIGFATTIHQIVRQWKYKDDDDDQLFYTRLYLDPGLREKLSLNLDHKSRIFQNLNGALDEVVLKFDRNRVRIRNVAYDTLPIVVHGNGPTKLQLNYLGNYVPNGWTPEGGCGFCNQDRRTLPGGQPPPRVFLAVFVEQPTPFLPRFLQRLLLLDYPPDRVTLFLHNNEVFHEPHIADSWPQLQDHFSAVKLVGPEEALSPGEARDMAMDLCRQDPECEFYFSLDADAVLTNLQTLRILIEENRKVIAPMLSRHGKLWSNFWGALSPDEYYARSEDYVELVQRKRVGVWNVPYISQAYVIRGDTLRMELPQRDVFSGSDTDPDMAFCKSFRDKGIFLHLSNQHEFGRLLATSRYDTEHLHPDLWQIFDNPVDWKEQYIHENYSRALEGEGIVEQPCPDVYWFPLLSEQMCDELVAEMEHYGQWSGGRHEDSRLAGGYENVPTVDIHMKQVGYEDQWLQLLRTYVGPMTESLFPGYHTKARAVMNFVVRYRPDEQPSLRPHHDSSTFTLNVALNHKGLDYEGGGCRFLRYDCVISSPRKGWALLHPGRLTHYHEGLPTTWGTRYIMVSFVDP

LH3/PLOD3 [2] = molecular target: T1, LH3/PLOD3; assay: luminescence-based Glc-T competition assay; format: biochemical; details: read-out: UDP-Glc (IC50)
Excerpt: luminescence-based Glc-T competition assay on LH3/PLOD3

SMILES | thermal shift (LH3/PLOD3 [1]) | IC50 (LH3/PLOD3 [2]) [mM]
O=C(O)[C@H]1O[C@H](OP(=O)(O)OP(=O)(O)OC[C@H]2O[C@@H](n3ccc(=O)[nH]c3=O)[C@H](O)[C@@H]2O)[C@H](O)[C@@H](O)[C@@H]1O [UDP-GlcA] | 1–1.5 °C | > 10
O=c1ccn([C@@H]2O[C@H](COP(=O)(O)OP(=O)(O)O[C@H]3OC[C@@H](O)[C@H](O)[C@H]3O)[C@@H](O)[C@H]2O)c(=O)[nH]1 [UDP-Xyl] | – | 3.17 ± 0.211
O=c1ccn([C@@H]2O[C@H](COP(=O)(O)OP(=O)(O)O)[C@@H](O)[C@H]2O)c(=O)[nH]1 [UDP] | 3–3.5 °C | –
